Data reported in US8252822B2, “Heterocyclic compounds and uses as anticancer agents” (Acea Biosciences, Inc., priority 2007, dated 2012).
Like-named read-outs stand apart in the source and are kept apart here.

Legend:
Jurkat = experiment: RT-CES cell proliferation inhibition, Jurkat; assay type: cell-based; conditions: Homo sapiens, 24 hrs
Source text: (§1) The biological activity of compounds disclosed herein was monitored and profiled using the Real-Time Cell Electronic Sensing (RT-CES®) system from ACEA Biosciences, Inc. The RT-CES system utilizes cell-substrate impedance technology to monitor cellular behavior inside tissue culture wells in a microtiter plate format. The technology features in the integration of molecular and cell biology with microelectronics and is based on the electronic detection of biological assay process. The details of this cell electronic sensing technology and associated devices, systems and methods of use as described in U.S. provisional application No. 60/379,749, filed on Jul. […]
(§2) For measurement of cell-substrate or cell-electrode impedance using RT-CES technology, microelectrodes having appropriate geometries are fabricated onto the bottom surfaces of microtiter plate or similar device, facing into the wells. […] When there are changes to the biological status of the cells analogue electronic readout signals are measured automatically and in real time, and are converted to digital signals for processing and for analysis. In a RT-CES system, a cell index (arbitrary representation of change in impedance) is automatically derived and provided based on measured electrode impedance values. […]
(§3) To quantify cell status based on the measured cell-electrode impedance, a parameter termed Cell Index is derived. […]

PC3 = experiment: RT-CES cell proliferation inhibition, PC3; assay type: cell-based; conditions: Homo sapiens, PC-3
Source text: as §1, §2, §3

HepG2 = experiment: RT-CES cell proliferation inhibition, HepG2; assay type: cell-based; conditions: Homo sapiens
Source text: as §1, §2, §3

MCF7 = experiment: RT-CES cell proliferation inhibition, MCF7; assay type: cell-based; conditions: Homo sapiens
Source text: as §1, §2, §3

B16-luc = experiment: RT-CES cell proliferation inhibition, B16-luc; assay type: cell-based, Rat; conditions: Mus musculus
Source text: as §1, §2, §3

MCF7adr = experiment: RT-CES cell proliferation inhibition, MCF7adr; assay type: cell-based; conditions: Homo sapiens, NCI/ADR-RES
Source text: as §1, §2, §3

KB = experiment: RT-CES cell proliferation inhibition, KB; assay type: cell-based; conditions: Homo sapiens
Source text: as §1, §2, §3

S180 sarcoma = experiment: Anti-tumor activity against S180 bearing mouse model; assay type: in vivo, ICR mice; conditions: for Inhibition Rate (%) / Tumor Weight: qd for 9 days; for Body Weight (g) Start: mouse, in vivo
Method: ACEA100160 (2-(4-ethoxyphenyl)amino-4-(6-methylimidazo[1,2-a]pyrimidin-3-yl)thiazole) and ACEA 100162 (2-(4-ethoxyphenyl)amino-4-(6-methylimidazo[2,1-b]thiazol-5-yl)thiazole) are prepared at concentration of 8 mg/ml in solution containing 20% HP-beta-CD dextrose (D5W). The solvent HP-beta-CD solution is used as a vehicle negative control.
ICR mice, male, 21.4±1.5 g
S180 sarcoma: murine cancer cell line S180.
The malignant ascites model of ICR mouse was induced by S180 cells.
Under a sterilized condition, sacrifice the ICR murine S180 bearing mice, take out of the ascites and dilute with NS to certain cell numbers. Inject 0.2 ml cell suspension (10^6 cells) subcutaneously into the left flank on ICR mice. On the first treatment day before iv or ip, implanted animals are randomly divided into ten groups as following. The drugs were administrated in the schedule of Table 11 respectively. The solvent HP-beta-CD solution is used as a vehicle negative control. Observe clinical signs at least daily.
Tumor weight was recorded. The tumor inhibitory rate was calculated as follows: inhibitory rate=1-Wt/W0, where Wt is the average weight of each drug treatment group and W0 is the average weight of negative control group. Results are given as mean±SD values from n animals. Comparisons between groups were made with Student's two-tailed t test and a P<0.05 was considered significant.

HT29 = experiment: RT-CES cell proliferation inhibition, HT29; assay type: cell-based; conditions: Homo sapiens, HT-29
Source text: as §1, §2, §3

GTL16 = experiment: RT-CES cell proliferation inhibition, GTL16; assay type: cell-based; conditions: Homo sapiens, GTL 16
Source text: as §1, §2, §3

- IC50 (Jurkat): 45.4 nM
- IC50 (PC3; PC3, 24 hrs, read-out: IC50 (24 hr)): 10.9 nM
- IC50 (PC3; PC3, 48 hrs, read-out: IC50 (48 hr)): 5.37 nM
- IC50 (HepG2; HepG2, 24 hrs, read-out: IC50 (24 hr)): > 200 nM
- IC50 (HepG2; HepG2, 48 hrs, read-out: IC50 (48 hr)): > 200 nM
- IC50 (MCF7; MCF7, 24 hrs, read-out: IC50 (24 hr)): > 200 nM
- IC50 (MCF7; MCF7, 48 hrs, read-out: IC50 (48 hr)): > 200 nM
- IC50 (B16-luc; 24 hrs, read-out: IC50 (24 hr)): 705 nM
- IC50 (B16-luc; 48 hrs, read-out: IC50 (48 hr)): 643 nM
- IC50 (MCF7adr; 24 hrs, read-out: IC50 (24 hr)): 12.3 nM
- IC50 (MCF7adr; 48 hrs, read-out: IC50 (48 hr)): 12.5 nM
- IC50 (KB; 24 hrs, read-out: IC50 (24 hr)): 22.2 nM
- IC50 (KB; 48 hrs, read-out: IC50 (48 hr)): 18.1 nM
- IC50 (HT29; HT29, 24 hrs, read-out: IC50 (24 hr)): 53.6 nM
- IC50 (HT29; HT29, 48 hrs, read-out: IC50 (48 hr)): 58.8 nM
SMILES: Br.CCOc1ccc(Nc2nc(-c3c(C)nc4sccn34)cs2)cc1 [Compound 27, 2-(4-ethoxyphenyl)amino-4-(6-methylimidazo[2,1-b]thiazol-5-yl)thiazole]
- Inhibition Rate (%) (S180 sarcoma; S180, IP, 40 mg/kg): 59.3%
- Tumor Weight (S180 sarcoma; S180, IP, 40 mg/kg): 0.61 ± 0.21 g
- Inhibition Rate (%) (S180 sarcoma; S180, IP, 80 mg/kg): 77.2%
- Tumor Weight (S180 sarcoma; S180, IP, 80 mg/kg): 0.34 ± 0.16 g
- Inhibition Rate (%) (S180 sarcoma; S180, IV, 40 mg/kg): 60.7%
- Tumor Weight (S180 sarcoma; S180, IV, 40 mg/kg): 0.59 ± 0.24 g
- Body Weight (g) Start (S180 sarcoma; ip, 40 mg/kg): 20.6 ± 0.4 g
- Body Weight (g) Start (S180 sarcoma; ip, 80 mg/kg): 21.8 ± 1.5 g
- Body Weight (g) Start (S180 sarcoma; iv, 40 mg/kg): 21.0 ± 0.4 g
- IC50 (GTL16; GTL16, 24 hrs, read-out: IC50 (24 hr)): 138 nM
- IC50 (GTL16; GTL16, 48 hrs, read-out: IC50 (48 hr)): 2.1 nM
